Experimental data reported in patent US11014895B2, “Heterocyclic urea compound, and drug composition and application thereof” (CHINA PHARMACEUTICAL UNIVERSITY, priority 2017, dated 2021).

Experiments:
IDO1 enzyme = IDO1 enzyme (Homo sapiens, UniProt P14902); assay: Determination of biochemical activity of IDO1 enzyme (absorbance at 320 nm); settings: room temperature, 3 hours
Outline: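 Absorbance at 320 nm was measured after a 3-hour room-temperature reaction of enzyme with compound. Phosphate buffer at pH 7-8 was used; inhibition was derived from the absorption ratio and fitted to IC50.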

[1] = target: T1, IDO1 enzyme in the Hela cell (Homo sapiens, UniProt P14902); assay: Cell activity: interferon γ-stimulated Hela cells, absorbance of supernatant at 480 nm; assay type: cell-based; settings: interferon γ 100 ng/ml, 72 hours
T1 construct: endogenous in cells; host or cells: HeLa cells stimulated with interferon γ (100 ng/ml)
Outline: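 Kynurenine-type readout: supernatant from IFN-γ-stimulated (100 ng/ml final) HeLa cells, 72 h with compound, was acid-hydrolysed with trichloroacetic acid (50 °C, 30 min). After centrifugation, 2% dimethylaminobenzaldehyde/acetic acid added and absorbance measured at 480 nm.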

IDO1 enzyme, sequence (P14902 whole entry): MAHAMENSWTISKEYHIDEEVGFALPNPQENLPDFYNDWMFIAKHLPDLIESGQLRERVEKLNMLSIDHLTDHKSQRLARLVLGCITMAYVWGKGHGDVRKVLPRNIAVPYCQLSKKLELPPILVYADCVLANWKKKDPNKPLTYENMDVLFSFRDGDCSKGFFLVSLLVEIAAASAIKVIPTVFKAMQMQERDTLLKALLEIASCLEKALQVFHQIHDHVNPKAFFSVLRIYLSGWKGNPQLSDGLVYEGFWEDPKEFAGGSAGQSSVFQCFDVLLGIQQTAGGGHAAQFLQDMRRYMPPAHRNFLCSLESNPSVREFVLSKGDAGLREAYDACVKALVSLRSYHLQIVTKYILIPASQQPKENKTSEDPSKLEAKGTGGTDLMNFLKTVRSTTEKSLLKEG
T1 sequence (P14902 whole entry): as above

Row | Compound | IC50 (IDO1 enzyme) | IC50 [1]
1 | O=C(Nc1ccncc1)Nc1nonc1/C(=N/O)Nc1ccc(F)c(Br)c1 [Embodiment 35] | 0.1 to 1 µM | 0.1 to 1 µM
2 | O=C(Nc1conc1/C(=N/O)Nc1ccc(F)c(Cl)c1)NC1CCCCC1 [Embodiment 114] | < 0.001 µM | < 0.001 µM
3 | O=C(Nc1ccccc1)Nc1conc1/C(=N/O)Nc1ccc(F)c(Cl)c1 [Embodiment 113, (Z)-1-(4-(N-(3-chloro-4-fluorophenyl)-N′-hydroxyaminoiminomethyl)-isoxazole-3-substituted)-4-phenylurea] | 0.1 to 1 µM | 0.1 to 1 µM
4 | N=C(NCCCO)Nc1nonc1/C(=N/O)Nc1ccc(F)c(Br)c1 [Embodiment 151, (Z)-1-(4-(N-(3-bromo-4-fluorophenyl)-N′-hydroxyaminoiminomethyl)-1,2,5-oxadiazole-3-substituted)-3-(3-hydroxypropyl)guanidine] | < 0.001 µM | < 0.001 µM
5 | O=C(Nc1ccsc1)Nc1nonc1/C(=N/O)Nc1ccc(F)c(Br)c1 [Embodiment 42, (Z)-1-(4-(N-(3-bromo-4-fluorophenyl)-N′-hydroxyaminoiminomethyl)-1,2,5-oxadiazole-3-substituted)-3-(thiophene-3-substituted)urea] | > 1 µM | > 1 µM
6 | N=C(NCCO)Nc1nonc1/C(=N/O)Nc1ccc(F)c(Br)c1 [Embodiment 152, (Z)-1-(4-(N-(3-bromo-4-fluorophenyl)-N′-hydroxyaminoiminomethyl)-1,2,5-oxadiazole-3-substituted)-3-(2-hydroxyethyl)guanidine] | < 0.001 µM | < 0.001 µM
7 | (Z)-1-(4-(N-(3-bromo-4-fluorophenyl)-N′-hydroxyaminoiminomethyl)-isoxazole-3-substituted)-3-phenylurea [Embodiment 81] | 0.1 to 1 µM | 0.1 to 1 µM
8 | O/N=C(\Nc1ccc(F)c(Br)c1)c1conc1NC(=S)Nc1ccccc1 [Embodiment 134, (Z)-1-(4-(N-(3-bromo-4-fluorophenyl)-N′-hydroxyaminoiminomethyl)-isoxazole-3-substituted)-3-(phenyl)thiourea] | 0.1 to 1 µM | 0.1 to 1 µM
9 | NCCNC(=O)Nc1conc1/C(=N/O)Nc1ccc(F)c(Br)c1 [Embodiment 111] | < 0.001 µM | < 0.001 µM
10 | NCCNC(=S)Nc1nonc1/C(=N/O)Nc1ccc(F)c(Br)c1 [Embodiment 129, (Z)-1-(4-(N-(3-bromo-4-fluorophenyl)-N′-hydroxyaminoiminomethyl)-1,2,5-oxadiazole-3-substituted)-3-(2-aminoethyl)thiourea] | 0.1 to 1 µM | 0.1 to 1 µM
11 | Nc1ccc(NC(=S)Nc2nonc2/C(=N/O)Nc2ccc(F)c(Br)c2)cc1 [Embodiment 118, (Z)-1-(4-(N-(3-bromo-4-fluorophenyl)-N′-hydroxyaminoiminomethyl)-1,2,5-oxadiazole-3-substituted)-3-(4-aminophenyl)thiourea] | < 0.001 µM | < 0.001 µM
12 | O=C(Nc1ccccc1)Nc1nocc1/C(=N/O)Nc1ccc(F)c(Cl)c1 [Embodiment 98, (Z)-1-(4-(N-(3-chloro-4-fluorophenyl)-N′-hydroxyaminoiminomethyl)-isoxazole-3-substituted)-3-(phenyl)urea] | 0.1 to 1 µM | 0.1 to 1 µM
13 | O=C(Nc1cccnc1)Nc1nocc1/C(=N/O)Nc1ccc(F)c(Br)c1 [Embodiment 96, (Z)-1-(4-(N-(3-bromo-4-fluorophenyl)-N′-hydroxyaminoiminomethyl)-isoxazole-3-substituted)-3-(3-aminopyridine)urea] | 0.1 to 1 µM | 0.1 to 1 µM
14 | COc1ccc(NC(=N)Nc2cocc2/C(=N/O)Nc2ccc(F)c(Br)c2)cc1 [Embodiment 160, (Z)-1-(4-(N-(3-bromo-4-fluorophenyl)-N′-hydroxyaminoiminomethyl)-furan-3-substituted)-3-(4-methoxyphenyl)guanidine] | 0.1 to 1 µM | 0.1 to 1 µM
15 | COc1ccccc1NC(=O)Nc1nonc1/C(=N/O)Nc1ccc(F)c(Br)c1 [Embodiment 3, (Z)-1-(4-(N-(3-bromo-4-fluorophenyl)-N′-hydroxyaminoiminomethyl)-1,2,5-oxadiazole-3-substituted)-3-(2-methoxyphenyl)urea] | > 1 µM | > 1 µM
16 | COc1ccc(NC(=N)Nc2nocc2/C(=N/O)Nc2ccc(F)c(Br)c2)cc1 [Embodiment 157, (Z)-1-(4-(N-(3-bromo-4-fluorophenyl)-N′-hydroxyaminoiminomethyl)-isoxazole-3-substituted)-3-(4-methoxyphenyl)guanidine] | 0.1 to 1 µM | 0.1 to 1 µM
17 | O=C(Nc1ncncn1)Nc1nonc1/C(=N/O)Nc1ccc(F)c(Br)c1 [Embodiment 44, (Z)-1-(4-(N-(3-bromo-4-fluorophenyl)-N′-hydroxyaminoiminomethyl)-1,2,5-oxadiazole-3-substituted)-3-(1,3,5-triazine-2-substituted)urea] | > 1 µM | > 1 µM

Row | Compound | IC50 (IDO1 enzyme) | IC50 [1]
18 | O=C(Nc1nonc1/C(=N/O)Nc1ccc(F)c(Br)c1)NC1CCCCCC1 [Embodiment 33, (Z)-1-(4-(N-(3-bromo-4-fluorophenyl)-N′-hydroxyaminoiminomethyl)-1,2,5-oxadiazole-3-substituted)-3-cycloheptylurea] | 0.1 to 1 µM | 0.1 to 1 µM
19 | O=C(Nc1conc1/C(=N/O)Nc1ccc(F)c(Br)c1)NC1CCCCC1 [Embodiment 103] | 0.1 to 1 µM | 0.1 to 1 µM
20 | O=C(Nc1conc1/C(=N/O)Nc1ccc(F)c(Br)c1)NC1CCC(O)CC1 (stereo not drawn) [Embodiment 105] | < 0.001 µM | < 0.001 µM
21 | CC(C)NC(=O)Nc1nocc1/C(=N/O)Nc1ccc(F)c(Br)c1 [Embodiment 92, (Z)-1-(4-(N-(3-bromo-4-fluorophenyl)-N′-hydroxyaminoiminomethyl)-isoxazole-3-substituted)-3-(isopropyl)urea] | 0.1 to 1 µM | 0.1 to 1 µM
22 | O/N=C(\Nc1ccc(F)c(Br)c1)c1nonc1NC(=S)NC1CCNCC1 [Embodiment 124, (Z)-1-(4-(N-(3-bromo-4-fluorophenyl)-N′-hydroxyaminoiminomethyl)-1,2,5-oxadiazole-3-substituted)-3-(piperidine-4-substituted)thiourea] | < 0.001 µM | < 0.001 µM
23 | NCCNC(=O)Nc1nonc1/C(=N/O)Nc1ccc(F)c(Br)c1 [Embodiment 16, (Z)-1-(4-(N-(3-bromo-4-fluorophenyl)-N′-hydroxyaminoiminomethyl)-1,2,5-oxadiazole-3-substituted)-3-(2-aminoethyl)urea] | 0.1 to 1 µM | 0.1 to 1 µM
24 | O=C(Nc1cocc1/C(=N/O)Nc1ccc(F)c(Br)c1)NC1CCNCC1 [Embodiment 64, (Z)-1-(4-(N-(3-bromo-4-fluorophenyl)-N′-hydroxyaminoiminomethyl)-furan-3-substituted)-3-(piperidine-4-substituted)urea] | 0.1 to 1 µM | 0.1 to 1 µM
25 | O/N=C(\Nc1ccc(F)c(Br)c1)c1nonc1NC(=S)NC1CCCC1 [Embodiment 122, (Z)-1-(4-(N-(3-bromo-4-fluorophenyl)-N′-hydroxyaminoiminomethyl)-1,2,5-oxadiazole-3-substituted)-3-(cyclopentyl)thiourea] | > 1 µM | > 1 µM
26 | COc1cccc(NC(=O)Nc2conc2/C(=N/O)Nc2ccc(F)c(Br)c2)c1 [Embodiment 101, (Z)-1-(4-(N-(3-bromo-4-fluorophenyl)-N′-hydroxyaminoiminomethyl)-isoxazole-3-substituted)-4-(3-methoxyphenyl)urea] | 0.1 to 1 µM | 0.1 to 1 µM
27 | CS(=O)(=O)NCCNC(=O)Nc1nonc1/C(=N/O)Nc1ccc(F)c(Cl)c1 [Embodiment 29, (Z)-1-(4-(N-(3-chloro-4-fluorophenyl)-N′-hydroxyaminoiminomethyl)-1,2,5-oxadiazole-3-substituted)-3-(3-methamido-ethyl)urea] | < 0.001 µM | < 0.001 µM
28 | O/N=C(\Nc1ccc(F)c(Br)c1)c1nonc1NC(=S)NC1CCC(O)CC1 (stereo not drawn) [Embodiment 123, (Z)-1-(4-(N-(3-bromo-4-fluorophenyl)-N′-hydroxyaminoiminomethyl)-1,2,5-oxadiazole-3-substituted)-3-(4-hydroxycyclohexyl)thiourea] | < 0.001 µM | < 0.001 µM
29 | O=C(NCCO)Nc1nonc1/C(=N/O)Nc1ccc(F)c(Cl)c1 [Embodiment 28, (Z)-1-(4-(N-(3-chloro-4-fluorophenyl)-N′-hydroxyaminoiminomethyl)-1,2,5-oxadiazole-3-substituted)-3-(23-hydroxyethane)urea] | < 0.001 µM | < 0.001 µM
30 | O=C(Nc1nocc1/C(=N/O)Nc1ccc(F)c(Br)c1)NC1CCC(O)CC1 (stereo not drawn) [Embodiment 84, (Z)-1-(4-(N-(3-bromo-4-fluorophenyl)-N′-hydroxyaminoiminomethyl)-isoxazole-3-substituted)-3-(4-hydroxycyclohexyl)urea] | 0.1 to 1 µM | 0.1 to 1 µM
31 | O=C(Nc1ccncn1)Nc1nonc1/C(=N/O)Nc1ccc(F)c(Br)c1 [Embodiment 45, (Z)-1-(4-(N-(3-bromo-4-fluorophenyl)-N′-hydroxyaminoiminomethyl)-1,2,5-oxadiazole-3-substituted)-3-(pyrimidine-4-substituted)urea] | > 1 µM | > 1 µM
32 | CS(=O)(=O)NCCNC(=O)Nc1cocc1/C(=N/O)Nc1ccc(F)c(Br)c1 [Embodiment 72, (Z)-1-(4-(N-(3-bromo-4-fluorophenyl)-N′-hydroxyaminoiminomethyl)-furan-3-substituted)-3-(2-methamidoethyl)urea] | 0.1 to 1 µM | 0.1 to 1 µM
33 | Nc1ccc(NC(=O)Nc2nonc2/C(=N/O)Nc2ccc(F)c(Cl)c2)cc1 [Embodiment 24, (Z)-1-(4-(N-(3-chloro-4-fluorophenyl)-N′-hydroxyaminoiminomethyl)-1,2,5-oxadiazole-3-substituted)-3-(4-aminophenyl)urea] | < 0.001 µM | < 0.001 µM
